{"source": "patent US20110229531A1", "about": "“ANTI-PROTOZOA COMPOUNDS” (priority 2009, published 2011)", "test_system": "Acanthamoeba", "test": "Acanthamoeba growth inhibition, alamarBlue reduction", "assay_type": "cell-based, Acanthamoeba castellanii", "description": "Furthermore, inhibition was ablated in a dose dependent manner by the addition of histidine to the medium."}
{"smiles": "Nc1nc[nH]n1", "note": "[3-AT, 3-amino-1,2,4-triazole]", "values": [{"measurement": "effect of 3AT on growth in the presence of histidine", "setting": "10 mM histidine added, 0.98 mM 3-AT, alamarBlue reduction", "result": "significantly (p<0.05) ablated the effect of 3AT"}, {"measurement": "IC20", "setting": "Acanthamoeba, read-out: IC20 of 3-AT", "result": 980, "unit": "µM"}, {"measurement": "IC50", "setting": "Acanthamoeba, absence of histidine, percentage of alamarBlue reduction", "result": "15 to 31", "unit": "µM"}, {"measurement": "concentration required to significantly (p<0.05) inhibit A. castellanii growth", "setting": "in the presence of 1 mM Histidine", "result": "≥ 0.06", "unit": "mM"}, {"measurement": "growth of Acanthamoeba", "setting": "medium without histidine, inhibition ablated dose dependently by added histidine", "result": "inhibits growth"}, {"measurement": "concentration that significantly (p<0.05) inhibited A. castellanii growth", "setting": "no histidine, compared with untreated control cultures, dose dependent", "result": "≥ 0.00095", "unit": "mM"}]}
{"smiles": "N[C@@H](Cc1c[nH]cn1)C(=O)O", "note": "[histidine]", "values": [{"measurement": "toxicity of histidine to Acanthamoeba", "setting": "100 mM histidine", "result": "toxic"}]}
